assay: RP, Waters CORTECS UPLC C18, 100 × 2.1 mm, 1.6 µm, 40 °C, 0.4 mL/min, estimated dead time 0.55 min; A: water + 0.1% formic acid, pH 3; B: acetonitrile + 0.1% formic acid, pH 3; gradient (min/%B) 0/5 1.12/5 6.41/99.5 10.01/99.5; settings: stereoisomer not certain

LC retention time [min] | SMILES
2.47 | O=C(O)Cc1c[nH]c2ccc(O)cc12 [5-HYDROXYINDOLEACETATE]
3.39 | CC1C(=O)Nc2ccccc21 (stereo not drawn) [3-METHYL-2-OXINDOLE]
3.56 | CCCCCC=CC(=O)OC(CC(=O)[O-])C[N+](C)(C)C [trans-2-Octenoyl-L-carnitine]
7.56 | CC(C)CCCC(C)C1CCC2C3C(=O)C=C4CC(O)CCC4(C)C3CCC12C (stereo not drawn) [5-Cholesten-3β-ol-7-one]
4.96 | CCCCCCCCCCCC=CC(=O)OC(CC(=O)[O-])C[N+](C)(C)C [trans-2-Tetradecenoyl-L-carnitine]
6.81 | CON=C1CC2(CC3CC(CC=C(C)CC(C)C=CC=C4COC5C(O)C(C)=CC(C(=O)O3)C45O)O2)OC(C(C)=CC(C)C)C1C (stereo not drawn) [Moxidectin]
2.9 | CCCCCC[n+]1cccc(S(=O)(=O)[O-])c1 [C6-APS]
7.48 | CC(C)CCCC(C)C1CCC2C3=CC=C4CC(O)CCC4(C)C3CCC21C (stereo not drawn) [7-dehydrocholesterol]
5.19 | CCOC(=O)NCCOc1ccc(Oc2ccccc2)cc1 [Fenoxycarb]
3.26 | O=C(O)CNC(=O)C=Cc1ccccc1 [N-(CINNAMOYL)GLYCINE]
4.24 | COC(=O)c1ccc(CNS(C)(=O)=O)cc1S(=O)(=O)NC(=O)Nc1nc(OC)cc(OC)n1 [Mesosulfuron-methyl]
4.8 | CC(CCC(=O)O)C1CCC2C3C(=O)CC4CC(O)CCC4(C)C3CCC12C (stereo not drawn) [Nutriacholic Acid]
5.93 | O=C(Nc1ccc(F)cc1)c1cccc(Oc2cccc(C(F)(F)F)c2)n1 [Picolinafen]
5.25 | CC(CCC(=O)NCC(=O)O)C1CCC2C3CCC4CC(O)CCC4(C)C3CCC12C (stereo not drawn) [Glycolithocholic acid]
1.3 | C[N+](C)(C)CC(CC(=O)[O-])OC(=O)CCCCC(=O)[O-].[H+] [Adipoyl-L-carnitine]
0.76 | Nc1nc2c(ncn2C2OC(CO)C(O)C2O)c(=O)[nH]1 (stereo not drawn) [GUANOSINE]
6.81 | CC(C)=CCCC(C)C1CCC2C3CC=C4CC(O)CCC4(C)C3CCC12C (stereo not drawn) [Desmosterol]
0.763 | O=C(O)c1cccnc1C(=O)O [2,3-Pyridinedicarboxylic acid]
0.886 | O=C(O)c1cc(O)c(O)c(O)c1 [Gallic acid]
1.79 | CC(C)C(=O)OC(CC(=O)[O-])C[N+](C)(C)C [Isobutyryl-L-carnitine]

SMILES | LC retention time [min]
CC12CCC(O)CC1CCC1C2CC(O)C2(C)C(C3=CC(=O)OC3)CCC12O (stereo not drawn) [Digoxigenin] | 2.45
CS(=O)(=O)c1cc(C(F)(F)F)ccc1C(=O)c1cnoc1C1CC1 [Isoxaflutole] | 4.85
Cc1cccc(C)c1N(Cn1cccn1)C(=O)CCl [Metazachlor] | 4.52
CCOP(=S)(OCC)SCSP(=S)(OCC)OCC [Ethion] | 6.19
CSC1=NC(C)(c2ccccc2)C(=O)N1Nc1ccccc1 (stereo not drawn) [Fenamidone] | 4.96
CC(C)(C)N(NC(=O)c1ccc(Cl)cc1)C(=O)c1ccccc1 [Halofenozide] | 4.84
CCCCN(CCCC)SN(C)C(=O)Oc1cccc2c1OC(C)(C)C2 [Carbosulfan] | 6.87
COc1cc(OC)nc(Oc2cccc(Oc3nc(OC)cc(OC)n3)c2C(=O)[O-])n1.[Na+] [Bispyribac sodium salt] | 4.63
CN1COCN(Cc2cnc(Cl)s2)C1=N[N+](=O)[O-] [Thiametoxam] | 2.87
COP(=O)(OC)SCn1c(=O)oc2cc(Cl)cnc21 [Azamethiphos] | 3.91
CCCOCC(=Nc1ccc(Cl)cc1C(F)(F)F)n1ccnc1 [Triflumizol] | 5.16
CNC(=O)C(C)SCCSP(=O)(OC)OC (stereo not drawn) [Vamidothion] | 3.02
CC(C)(C)C(O)C(Oc1ccc(-c2ccccc2)cc1)n1cncn1 (stereo not drawn) [Bitertanol] | 5.14
